Laboratory results: ChEMBL document CHEMBL3870312, “Rational modification of donepezil as multifunctional acetylcholinesterase inhibitors for the treatment of Alzheimer's disease” (Eur J Med Chem, 2016)
pIC50: −log10 of the molar value. Activity calls are given as the source filed them. No cut-off for these calls is given here.

Columns and labels:
[1] = Inhibition of copper-mediated aggregation of amyloid beta (1 to 42 residues) (unknown origin) at 20 uM incubated for 46 to 48 hrs by thioflavin-T binding assay relative to control; assay type: physicochemical
Acetylcholinesterase [2] = biological target: T1, Acetylcholinesterase (Homo sapiens, UniProt P22303)
T1 sequence (P22303 whole entry): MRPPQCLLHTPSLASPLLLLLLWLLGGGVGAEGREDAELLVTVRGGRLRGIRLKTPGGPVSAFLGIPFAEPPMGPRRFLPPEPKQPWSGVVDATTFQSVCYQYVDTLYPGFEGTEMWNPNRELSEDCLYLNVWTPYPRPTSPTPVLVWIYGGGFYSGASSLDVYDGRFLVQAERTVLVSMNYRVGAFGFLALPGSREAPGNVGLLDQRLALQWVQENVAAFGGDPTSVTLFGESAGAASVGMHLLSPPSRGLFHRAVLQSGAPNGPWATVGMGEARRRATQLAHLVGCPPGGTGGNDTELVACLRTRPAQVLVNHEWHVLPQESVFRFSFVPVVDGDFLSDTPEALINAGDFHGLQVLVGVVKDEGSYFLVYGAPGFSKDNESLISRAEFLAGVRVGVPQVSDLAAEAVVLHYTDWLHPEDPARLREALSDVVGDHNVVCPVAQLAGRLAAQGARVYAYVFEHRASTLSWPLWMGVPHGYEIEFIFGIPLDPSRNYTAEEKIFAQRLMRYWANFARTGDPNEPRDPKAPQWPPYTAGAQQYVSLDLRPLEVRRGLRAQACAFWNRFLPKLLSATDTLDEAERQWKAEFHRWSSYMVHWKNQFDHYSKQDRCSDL
Description: Inhibition of human erythrocytes AChE using acetylthiocholine iodide as substrate preincubated for 5 mins followed by substrate addition measured up to 3 mins by Ellman's method

Mus musculus [3] = assay: Hepatotoxicity in scopolamine-induced memory deficit Kunming mouse model assessed as area of necrosis in hepatocytes at 10 mg/Kg, po for 6 days by hematoxylin and eosin-staining based microscopic analysis; assay type: toxicity, organism-based, Hepatocyte; settings: 144 h
Mus musculus [4] = assay: Cognitive enhancement activity in po dosed scopolamine-induced memory deficit Kunming mouse model assessed as increase in step-through latency time treated for 1 hr before training followed by scopolamine challenge 30 mins before training measured 24 hrs after training trial by passive avoidance test; assay type: functional, organism-based
in vitro = settings: PAMPA
Description: Effective permeability of the compound after 18 hrs by PAMPA

Rattus norvegicus = species: Rattus norvegicus; assay: Cytotoxicity against rat PC12 cells assessed as reduction in cell viability at 3.125 to 50 uM after 24 hrs by MTT assay; assay type: toxicity; settings: pc-12, 24 h
Mus musculus [5] = assay: Toxicity in scopolamine-induced memory deficit Kunming mouse model assessed as effect on survival at 2.5 to 10 mg/Kg, po for 7 days; assay type: organism-based; settings: in vivo, 168 h
[6] = biological target: Amyloid-beta precursor protein (Homo sapiens) (UniProt P05067); settings: at 20 µM
Chain of Amyloid-beta precursor protein (Homo sapiens) (P05067 whole entry): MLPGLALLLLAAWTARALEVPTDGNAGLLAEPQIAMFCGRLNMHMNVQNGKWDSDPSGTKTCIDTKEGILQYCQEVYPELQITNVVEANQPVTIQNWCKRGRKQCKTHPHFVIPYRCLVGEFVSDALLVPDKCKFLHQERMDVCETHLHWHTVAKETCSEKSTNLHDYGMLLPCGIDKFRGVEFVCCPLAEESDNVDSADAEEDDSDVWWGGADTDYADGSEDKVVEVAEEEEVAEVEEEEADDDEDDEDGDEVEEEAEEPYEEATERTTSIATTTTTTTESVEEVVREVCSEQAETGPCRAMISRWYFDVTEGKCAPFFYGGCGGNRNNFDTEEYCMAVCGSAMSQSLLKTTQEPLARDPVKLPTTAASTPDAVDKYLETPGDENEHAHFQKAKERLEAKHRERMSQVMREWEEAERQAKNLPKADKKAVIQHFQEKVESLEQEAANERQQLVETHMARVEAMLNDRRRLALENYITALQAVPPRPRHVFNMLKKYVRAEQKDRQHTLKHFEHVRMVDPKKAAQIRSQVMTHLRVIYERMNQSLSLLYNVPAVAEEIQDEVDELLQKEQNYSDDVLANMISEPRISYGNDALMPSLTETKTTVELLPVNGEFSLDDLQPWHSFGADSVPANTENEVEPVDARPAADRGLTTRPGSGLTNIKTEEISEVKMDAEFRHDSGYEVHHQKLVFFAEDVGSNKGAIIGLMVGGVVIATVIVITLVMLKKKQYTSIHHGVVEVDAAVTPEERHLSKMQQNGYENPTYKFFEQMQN
Description: Inhibition of self-mediated aggregation of amyloid beta (1 to 42 residues) (unknown origin) at 20 uM incubated for 46 to 48 hrs by Thioflavin T binding assay relative to control

Acetylcholinesterase [7] = biological target: Acetylcholinesterase (Electrophorus electricus, UniProt O42275)
Chain of Acetylcholinesterase (Electrophorus electricus, UniProt O42275) (O42275 whole entry): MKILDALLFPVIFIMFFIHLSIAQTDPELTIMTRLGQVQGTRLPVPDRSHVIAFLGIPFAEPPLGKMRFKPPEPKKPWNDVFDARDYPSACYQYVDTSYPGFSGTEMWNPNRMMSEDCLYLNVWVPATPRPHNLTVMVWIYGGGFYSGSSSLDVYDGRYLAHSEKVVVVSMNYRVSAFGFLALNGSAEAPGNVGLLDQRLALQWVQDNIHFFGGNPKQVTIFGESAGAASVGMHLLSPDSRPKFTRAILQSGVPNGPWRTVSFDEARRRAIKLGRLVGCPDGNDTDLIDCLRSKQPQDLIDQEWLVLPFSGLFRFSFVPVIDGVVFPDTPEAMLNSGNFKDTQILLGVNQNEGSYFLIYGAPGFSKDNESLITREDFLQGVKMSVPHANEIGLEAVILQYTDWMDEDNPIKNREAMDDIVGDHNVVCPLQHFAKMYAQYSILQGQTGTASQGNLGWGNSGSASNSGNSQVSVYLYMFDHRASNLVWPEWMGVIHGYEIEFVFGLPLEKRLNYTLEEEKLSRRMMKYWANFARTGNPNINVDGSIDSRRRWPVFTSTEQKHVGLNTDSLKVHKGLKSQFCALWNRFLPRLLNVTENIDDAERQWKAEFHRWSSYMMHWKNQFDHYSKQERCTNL
Description: Inhibition of electric eel AChE using acetylthiocholine iodide as substrate preincubated for 5 mins followed by substrate addition measured up to 3 mins by Ellman's method

Cholinesterase [8] = biological target: Cholinesterase (Equus caballus, UniProt P81908)
Chain of Cholinesterase (Equus caballus, UniProt P81908) (P81908 whole entry): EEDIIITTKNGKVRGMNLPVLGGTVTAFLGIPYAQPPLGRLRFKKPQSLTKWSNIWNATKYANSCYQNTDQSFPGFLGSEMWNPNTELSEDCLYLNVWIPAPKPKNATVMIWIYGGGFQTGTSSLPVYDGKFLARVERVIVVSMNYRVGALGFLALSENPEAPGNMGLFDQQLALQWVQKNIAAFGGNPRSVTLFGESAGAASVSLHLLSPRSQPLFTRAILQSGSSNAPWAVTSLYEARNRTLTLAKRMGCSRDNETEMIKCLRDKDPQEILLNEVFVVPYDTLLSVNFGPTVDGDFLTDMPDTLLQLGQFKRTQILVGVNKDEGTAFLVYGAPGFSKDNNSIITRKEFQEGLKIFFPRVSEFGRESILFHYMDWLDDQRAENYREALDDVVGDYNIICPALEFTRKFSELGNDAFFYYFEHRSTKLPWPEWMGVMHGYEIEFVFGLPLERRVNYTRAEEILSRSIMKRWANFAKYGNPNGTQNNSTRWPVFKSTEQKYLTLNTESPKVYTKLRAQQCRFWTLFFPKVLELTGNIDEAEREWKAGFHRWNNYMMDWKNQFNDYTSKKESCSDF
Description: Inhibition of equine serum BuChE using s-butyrylthiocholine iodide as substrate preincubated for 5 mins followed by substrate addition measured up to 3 mins by Ellman's method

Cholinesterase [9] = biological target: Cholinesterase (Homo sapiens, UniProt P06276)
Chain of Cholinesterase (Homo sapiens, UniProt P06276) (P06276 whole entry): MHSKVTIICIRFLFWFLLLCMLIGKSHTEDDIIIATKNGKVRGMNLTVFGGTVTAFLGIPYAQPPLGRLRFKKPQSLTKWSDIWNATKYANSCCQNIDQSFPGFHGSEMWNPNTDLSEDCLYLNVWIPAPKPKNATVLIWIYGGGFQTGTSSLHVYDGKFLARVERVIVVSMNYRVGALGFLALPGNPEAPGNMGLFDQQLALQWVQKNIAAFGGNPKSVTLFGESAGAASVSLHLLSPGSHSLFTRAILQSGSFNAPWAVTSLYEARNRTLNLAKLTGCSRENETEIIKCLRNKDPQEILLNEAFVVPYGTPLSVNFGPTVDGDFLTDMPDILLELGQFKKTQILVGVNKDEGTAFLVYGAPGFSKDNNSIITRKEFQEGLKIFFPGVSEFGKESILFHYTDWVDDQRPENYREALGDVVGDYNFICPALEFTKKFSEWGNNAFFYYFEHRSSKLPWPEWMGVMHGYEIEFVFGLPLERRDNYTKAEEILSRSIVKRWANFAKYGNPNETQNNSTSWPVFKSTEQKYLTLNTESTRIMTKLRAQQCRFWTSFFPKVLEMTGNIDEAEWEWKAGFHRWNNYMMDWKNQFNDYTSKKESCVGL
Description: Inhibition of human serum BuChE using s-butyrylthiocholine iodide as substrate preincubated for 5 mins followed by substrate addition measured up to 3 mins by Ellman's method

Mus musculus [10] = assay: Hepatotoxicity in scopolamine-induced memory deficit Kunming mouse model assessed as distinct fatty degeneration in hepatocytes at 10 mg/Kg, po for 6 days by hematoxylin and eosin-staining based microscopic analysis; assay type: toxicity, organism-based; settings: in vivo, 144 h
Mus musculus [11] = assay: Hepatotoxicity in scopolamine-induced memory deficit Kunming mouse model assessed as increased aspartate aminotransferase at 10 mg/Kg, po for 6 days; assay type: toxicity, organism-based; settings: in vivo, 144 h
Mus musculus [12] = assay: Hepatotoxicity in scopolamine-induced memory deficit Kunming mouse model assessed as increase in number of inflammatory cells in portal fields of liver at 10 mg/Kg, po for 6 days by hematoxylin and eosin-staining based microscopic analysis; assay type: toxicity, organism-based; settings: in vivo, 144 h
Mus musculus [13] = assay: Hepatotoxicity in scopolamine-induced memory deficit Kunming mouse model assessed as increase in alanine aminotransferase levels at 10 mg/kg, po for 6 days; assay type: toxicity, organism-based; settings: in vivo, 144 h
Acetylcholinesterase [14] = biological target: T1, Acetylcholinesterase; assay: Mixed-type inhibition of human erythrocyte AChE preincubated for 15 mins followed by addition of acetylthiocholine iodide as substrate in varying concentrations by Lineweaver-Burk reciprocal plot analysis
Mus musculus [15] = assay: Toxicity in scopolamine-induced memory deficit Kunming mouse model assessed as change in body weight at 2.5 to 10 mg/Kg, po for 7 days; assay type: organism-based; settings: in vivo, 168 h
PC-12 [16] = assay: Neuroprotective activity against amyloid beta (1 to 42 residues) induced cell death in rat PC12 cells assessed as increase in cell viability at 10 to 20 uM preincubated for 24 hrs followed by amyloid beta (1 to 42 residues) addition measured after 24 hrs by MTT assay; assay type: functional, cell-based
PC-12 [17] = assay: Neuroprotective activity against Cu2+-amyloid beta (1 to 42 residues) induced cell death in rat PC12 cells assessed as increase in cell viability at 2.5 to 20 uM preincubated for 24 hrs followed by Cu2+-amyloid beta (1 to 42 residues) addition measured after 24 hrs by MTT assay; assay type: functional, cell-based
PC-12 [18] = assay: Neuroprotective activity against Cu2+-amyloid beta (1 to 42 residues) induced cell death in rat PC12 cells by phase-contrast microscopy analysis; assay type: functional, cell-based
PC-12 [19] = assay: Neuroprotective activity against amyloid beta (1 to 42 residues) induced cell death in rat PC12 cells by phase-contrast microscopy analysis; assay type: functional, cell-based
PC-12 [20] = assay: Neuroprotective activity against amyloid beta (1 to 42 residues) induced cell death in rat PC12 cells assessed as increase in cell viability at 20 uM preincubated for 24 hrs followed by amyloid beta (1 to 42 residues) addition measured after 24 hrs by MTT assay; assay type: functional, cell-based

SMILES: COc1cc2c(cc1OC)C(=O)C(CC1CCN(Cc3ccccc3F)CC1)C2 (stereo not given)
- inhibition (INH) [1]: < 10%
- pIC50 (Acetylcholinesterase [2]): 7.49
- Activity (Mus musculus [3]): Non-Toxic
- Activity (Mus musculus [4]): Dose-dependent effect
- Papp at 18 h (in vitro): 13.7 ×10⁻⁶ cm/s
- Activity (Rattus norvegicus): Non-Toxic
- Activity (Mus musculus [5]): Non-Toxic
- inhibition [6]: > 10%
- pIC50 (Acetylcholinesterase [7]): 7.37
- pIC50 (Cholinesterase [8]): 5.43
- pIC50 (Cholinesterase [9]): 4.89
- Activity (Mus musculus [10]): Non-Toxic
- Activity (Mus musculus [11]): Non-Toxic
- Activity (Mus musculus [12]): Non-Toxic
- Activity (Mus musculus [13]): Non-Toxic
- inhibition (Acetylcholinesterase [14]): Active
- Activity (Mus musculus [15]): Non-Toxic

SMILES: COc1cc2c(cc1OC)C(=O)C(CC1CCN(Cc3ccc(F)cc3)CC1)C2 (stereo not given)
- pIC50 (Acetylcholinesterase [2]): 7.39
- pIC50 (Acetylcholinesterase [7]): 6.89
- pIC50 (Cholinesterase [8]): 5.64
- pIC50 (Cholinesterase [9]): 5.09

SMILES: COc1cc2c(cc1OC)C(=O)C(CC1CCN(Cc3ncc(C)cc3C)CC1)C2 (stereo not given)
- pIC50 (Acetylcholinesterase [2]): 6.09
- pIC50 (Acetylcholinesterase [7]): 6.00
- pIC50 (Cholinesterase [8]): 5.20
- pIC50 (Cholinesterase [9]): 5.07

SMILES: COc1cc2c(cc1OC)C(=O)C(CC1CCN(Cc3ncccc3C)CC1)C2 (stereo not given)
- pIC50 (Acetylcholinesterase [2]): 6.95
- Papp at 18 h (in vitro): 8.4 ×10⁻⁶ cm/s
- Activity (Rattus norvegicus): Non-Toxic
- inhibition [6]: 29.3%
- pIC50 (Acetylcholinesterase [7]): 6.97
- pIC50 (Cholinesterase [8]): 4.81
- pIC50 (Cholinesterase [9]): 4.31

SMILES: COc1cc2c(cc1OC)C(=O)C(CC1CCN(Cc3ccc(C)cc3)CC1)C2 (stereo not given)
- pIC50 (Acetylcholinesterase [2]): 6.90
- Activity (Rattus norvegicus): Non-Toxic
- pIC50 (Acetylcholinesterase [7]): 6.66
- pIC50 (Cholinesterase [8]): 5.18
- pIC50 (Cholinesterase [9]): 4.36

SMILES: COc1cc2c(cc1OC)C(=O)C(CC1CCN(Cc3cccc(C)c3)CC1)C2 (stereo not given)
- inhibition (INH) [1]: < 10%
- pIC50 (Acetylcholinesterase [2]): 7.06
- Papp at 18 h (in vitro): 12.6 ×10⁻⁶ cm/s
- inhibition [6]: > 10%
- pIC50 (Acetylcholinesterase [7]): 6.97
- pIC50 (Cholinesterase [8]): 5.23
- pIC50 (Cholinesterase [9]): 4.55

SMILES: COc1cc2c(cc1OC)C(=O)C(CC1CCN(Cc3ccc([N+](=O)[O-])cc3)CC1)C2 (stereo not given)
- pIC50 (Acetylcholinesterase [2]): 5.72
- pIC50 (Acetylcholinesterase [7]): 5.40
- pIC50 (Cholinesterase [8]): 4.91
- pIC50 (Cholinesterase [9]): 4.07

SMILES: COc1cc2c(cc1OC)C(=O)C(CC1CCN(Cc3ccc(O)c4ncccc34)CC1)C2 (stereo not given)
- Activity (PC-12 [16]): Active
- Activity (PC-12 [17]): Active
- Activity (PC-12 [18]): Active
- pIC50 (Acetylcholinesterase [2]): 4.68
- Papp at 18 h (in vitro): 8.8 ×10⁻⁶ cm/s
- Activity (Rattus norvegicus): Non-Toxic
- inhibition [6]: 51.1%
- pIC50 (Acetylcholinesterase [7]): 4.56
- pIC50 (Cholinesterase [8]): 5.12
- Activity (PC-12 [19]): Active

SMILES: COc1cc2c(cc1OC)C(=O)C(CC1CCN(Cc3ccccc3Cl)CC1)C2 (stereo not given)
- pIC50 (Acetylcholinesterase [2]): 7.01
- pIC50 (Acetylcholinesterase [7]): 7.22
- pIC50 (Cholinesterase [8]): 5.49
- pIC50 (Cholinesterase [9]): 4.73

SMILES: COc1cc2c(cc1OC)C(=O)C(CC1CCN(Cc3ccc4cccc(O)c4n3)CC1)C2 (stereo not given)
- pIC50 (Acetylcholinesterase [2]): 4.53
- Papp at 18 h (in vitro): 6.1 ×10⁻⁶ cm/s
- inhibition [6]: 44.8%
- pIC50 (Acetylcholinesterase [7]): 5.19
- pIC50 (Cholinesterase [8]): 5.34
- pIC50 (Cholinesterase [9]): 4.43

SMILES: COc1cc2c(cc1OC)C(=O)C(CC1CCN(Cc3cccc(C(F)(F)F)c3)CC1)C2 (stereo not given)
- pIC50 (Acetylcholinesterase [2]): 5.67
- pIC50 (Acetylcholinesterase [7]): 6.71
- pIC50 (Cholinesterase [8]): 4.74
- pIC50 (Cholinesterase [9]): 4.11

SMILES: COc1cc2c(cc1OC)C(=O)C(CC1CCN(Cc3cccc(Cl)c3)CC1)C2 (stereo not given)
- pIC50 (Acetylcholinesterase [2]): 6.94
- pIC50 (Acetylcholinesterase [7]): 6.63
- pIC50 (Cholinesterase [8]): 4.16
- pIC50 (Cholinesterase [9]): 4.30

SMILES: COc1cc2c(cc1OC)C(=O)C(CC1CCN(Cc3cccc([N+](=O)[O-])c3)CC1)C2 (stereo not given)
- pIC50 (Acetylcholinesterase [2]): 6.19
- pIC50 (Acetylcholinesterase [7]): 6.38
- pIC50 (Cholinesterase [8]): 4.37

SMILES: COc1ccc2[nH]cc(CCNC(C)=O)c2c1
- Activity (PC-12 [20]): Active
